Measurements from patent US11865158B2, “Process and composition matter of nanoparticle formulation for systemic treatment of sepsis” (PURDUE RESEARCH FOUNDATION, priority 2019, dated 2024).
Like-named read-outs stand apart in the source and are kept apart here.

Columns and labels:
LPS-induced sepsis = assay: Therapeutic efficacy in LPS-induced endotoxemia (sepsis) model; type: in vivo, C57BL/6 mice; details: free PMB at the respective LD50 (20 mg/kg for IP and 5 mg/kg for IV)
Description: The therapeutic efficacy of D-TZP was tested in a mouse model of sepsis. C57BL/6 male mice were given IP injection of 20 mg/kg LPS, which causes systemic inflammation similar to initial clinical features of sepsis. TZP or D-TZP was administered in three regimens:
Therapeutic efficacy in LPS-induced endotoxemia model. 6-8 week-old C57BL/6 mice (male and female) were challenged with an intraperitoneal injection of 20 mg/kg LPS solution (5% dextrose) via 20G catheter (Exel International Disposable Safelet I.V.), which causes systemic inflammation similar to initial clinical features of sepsis^17,19. […] A vehicle control (5% dextrose) or an equivalent dose of free PMB were given in the same manner for comparison. […] Buprenorphine (0.05 mg/kg) was injected subcutaneously shortly after the treatment and every 2-12 h as the signs of discomfort were observed. The body temperature was measured with a Pocket Infrared Thermometer (Braintree Scientific, Inc., Braintree, MA) at each observation, and the body weight was recorded at each observation. When an animal was found dead at the time of observation, the time of death was estimated to be in the halfway of the last two observation times. When animals were lethargic and cold at the time of observation, the animals were euthanized by CO2 asphyxiation. The mouse survival was monitored for 2 weeks.

C57BL/6 male mice = details: known value, cited from earlier work
[1] = tested on: Klebsiella pneumoniae NR-41920; assay: Effect on bacterial membrane (SEM); type: cell-based; details: 5×MIC for 1.5 h
Description: Effect on bacterial membrane. […] The bacteria were collected by centrifugation at 5000 rcf for 10 min, fixed in 2.5% glutaraldehyde solution at 4° C., and placed on poly-1-lysine coated coverslip. After 1 h, the coverslip was rinsed three times with water (5 min each) and incubated in 2% Osmium tetroxide for 30 min. SEM imaging was performed as described in previous section.

J774a.1 macrophages = assay: Effect on cell membrane, SEM; type: cell-based; details: eq. to 150 μg/mL PMB, 12 h
Description: Effect of PMB and D-TZP on cell membrane. The effect of D-TZP on J774A.1 cell membrane was monitored by two methods (scanning electron microscopy and confocal microscopy). For scanning electron microscopy, J774A.1 macrophages were plated in a 6-well plate at a density of 3×10^5 cells per well with 3 mL of complete medium. After overnight incubation at 37° C. in a 5% CO2 atmosphere, the cells were treated with either free PMB or D-TZP at a concentration equivalent to 150 μg/mL PMB for 12 h. The cells were centrifuged at 233 relative centrifugal force (rcf) for 3 min. The medium was removed, and 2.5% glutaraldehyde solution was added for fixation overnight at 4° C. The cells were then rinsed three times with water (5 min each) and incubated in 2% Osmium tetroxide for 1 h. After rinsing another three times with water (5 min each), the cells were dehydrated with a series of ethanol gradients (50%, 75%, 95%) for 10 minutes at each step. The dehydrated cells were rinsed with 100% ethanol three times for 10 minutes each time, stored in a 1:1 mixture of HMDS and ethanol in 1:1 for 30 min, and rinsed with 100% HMDS for 30 min twice. After overnight drying, the cells were placed on a carbon tape attached to an aluminum stud and coated with platinum for SEM analysis. The morphology of treated J774a.1 cells then was observed by a FEI NOVA NanoSEM scanning electron microscope (SEM). […]

[2] = tested on: Escherichia coli ATCC 2452; assay: Minimum inhibitory concentration, broth microdilution; type: cell-based
From the text: (§1) Bacterial cell lines and reagents. Escherichia coli ATCC 2452 (NDM-1, isolated in Pakistan) was New Delhi metallo-beta-lactamase (NDM-1) positive, blaNDM positive by PCR, and carbepenem-resistant (Imipenem and Ertapenem). Escherichia coli ATCC 2469 (1001728, isolated from human urine) was New Delhi metallo-beta-lactamase (NDM-1) positive, blaKPC negative and blaNDM positive by PCR, and Carbepenem-resistant (Imipenem and Ertapenem). Klebsiella pneumoniae (NR-41920, isolated in 2008 from human blood culture in Boston, Massachusetts, USA) was Carbapenem-resistant strain, blaKPC-3 positive by PCR, and resistant to amikacin, ampicillin/sulbactam, cefazolin, cefepime, ceftazidime, ceftriaxone, cefuroxime, ciprofloxacin, gentamicin, meropenem, piperacillin/tazobactam, tobramicin and trimethoprim/sulfamethoxazole. Pseudomonas aeruginosa (NR-50573, isolated in early 1970s from the blood of a burn patient at Mercy Hospital in Pittsburgh, Pennsylvania, USA) was resistant to rifampicin and susceptible to meropenem, ofloxacin, ceftazidime, amikacin, and tobramycin. 0.5 McFarland standard was purchased from ThermoFisher scientific (Waltham, MA, USA). Mueller-Hinton broth and tryptone soy agar plates were purchased from Becton, Dickinson and company (Franklin Lakes, New Jersey, USA).
(§2) Antimicrobial activities The minimum inhibitory concentrations (MICs) of the control antibiotics (gentamicin and imipenem), PMB, D-TZP and TZP against Escherichia coli, Klebsiella pneumoniae and Pseudomonas aeruginosa strains were determined by the broth microdilution method, according to guidelines outlined by the Clinical and Laboratory Standards Institute (CLSI)^18. The bacterial stains were grown aerobically overnight on tryptone soy agar plates at 37° C. Afterwards, a bacterial solution equivalent to 0.5 McFarland standard was prepared and diluted in cation-adjusted Mueller-Hinton broth (CAMHB) to achieve a bacterial concentration of ˜5×10^5 CFU/mL. The treatments were added in the first row of the 96-well plates and serially diluted with media containing bacteria. Plates were incubated aerobically at 37° C. for 16-18 hours.

[3] = tested on: Klebsiella pneumoniae NR-41920; assay: as above; type: cell-based
From the text: as §1, §2

[4] = tested on: Pseudomonas aeruginosa NR-50573; assay: as above; type: cell-based
From the text: as §1, §2

[5] = tested on: Escherichia coli ATCC 2469; assay: as above; type: cell-based
From the text: as §1, §2

For polymyxin B [PMB], the “protection of challenged animals” value (LPS-induced sepsis) is given as “did not protect the challenged animals”, the LD50 (C57BL/6 male mice; IP) is given as 20 mg/kg and the LD50 (C57BL/6 male mice; IV) is given as 5 mg/kg. The “bacterial membrane morphology by SEM” value [1] was “induced deformation of bacterial membrane”, the “cell membrane morphology by SEM” value (J774a.1 macrophages) was “deformed membrane morphology” and the “Minimum inhibitory concentration (MIC)” value [2] was 0.5 µg/mL. For the same substance, the “Minimum inhibitory concentration (MIC)” value [3] was 0.5 µg/mL, the “Minimum inhibitory concentration (MIC)” value [4] was 0.5 µg/mL and the “Minimum inhibitory concentration (MIC)” value [5] was 0.125 µg/mL.
